Active and inactive are the calls of the source. The calls are words filed in the database; no cut-off is given here.
How the values were obtained:
Candida albicans [1] = experiment: Inhibition of yeast to hypha transition in fluconazole-resistant Candida albicans DAY185 assessed as decrease in germ tube formation at 10 to 20 ug/ml measured after 24 hrs by SEM analysis; assay type: functional, organism-based; conditions: dose 10-20 µg/ml
Candida albicans [2] = experiment: Antibiofilm activity against fluconazole-resistant Candida albicans DAY185 assessed as inhibition of biofilm formation at 20 ug/ml measured after 24 hrs by crystal violet staining based analysis relative to control; assay type: functional
Candida albicans [3] = experiment: Inhibition of yeast to hypha transition in fluconazole-resistant Candida albicans DAY185 assessed as decrease in cell aggregation at 10 to 20 ug/ml measured after 24 hrs by SEM analysis; assay type: functional, organism-based; conditions: dose 10-20 µg/ml
[Candida] auris [4] = Antibiofilm activity against Candida auris KCTC 17810 assessed as inhibition of biofilm formation by crystal violet staining based analysis; assay type: functional, organism-based; conditions: Candidozyma auris
Candida albicans [5] = experiment: Antibiofilm activity against fluconazole-resistant Candida albicans DAY185 assessed as reduction in substratum coverage on bio-compatible PLGA surface coated with compound at 20 ug/ml incubated for 24 hrs by COMSTAT analysis; assay type: functional, organism-based; conditions: dose 20.0 µg/ml
Candida albicans [6] = experiment: Inhibition of yeast to hypha transition in fluconazole-resistant Candida albicans DAY185 assessed as decrease in filamentous growth at 10 to 20 ug/ml measured after 24 hrs by SEM analysis; assay type: functional, organism-based; conditions: dose 10-20 µg/ml
Candida albicans [7] = experiment: Upregulation of CDR11 mRNA level in fluconazole-resistant Candida albicans DAY185 assessed as fold increase at 50 ug/ml incubated for 6 hrs by qRT-PCR analysis relative to control; assay type: functional; conditions: dose 50.0 µg/ml
[Candida] auris [8] = Antibiofilm activity against Candida auris KCTC 17809 assessed as inhibition of biofilm formation by crystal violet staining based analysis; assay type: functional, organism-based; conditions: Candidozyma auris
Candida albicans [9] = experiment: Antibiofilm activity against fluconazole-resistant Candida albicans DAY185 assessed as inhibition of biofilm formation at 50 ug/ml measured after 24 hrs by crystal violet staining based analysis relative to control; assay type: functional
Candida albicans [10] = experiment: Downregulation of ECE1 mRNA level in fluconazole-resistant Candida albicans DAY185 assessed as fold decrease at 50 ug/ml incubated for 6 hrs by qRT-PCR analysis relative to control; assay type: functional; conditions: dose 50.0 µg/ml
Candida albicans [11] = experiment: Antibiofilm activity against fluconazole-resistant Candida albicans DAY185 assessed as reduction in biofilm mass on bio-compatible PLGA surface coated with compound incubated for 24 hrs by COMSTAT analysis; assay type: functional, organism-based
Candida albicans [12] = experiment: Downregulation of UME6 mRNA level in fluconazole-resistant Candida albicans DAY185 assessed as fold decrease at 50 ug/ml incubated for 6 hrs by qRT-PCR analysis relative to control; assay type: functional; conditions: dose 50.0 µg/ml
Candida albicans [13] = experiment: Upregulation of YWP1 mRNA level in fluconazole-resistant Candida albicans DAY185 assessed as fold increase at 50 ug/ml incubated for 6 hrs by qRT-PCR analysis relative to control; assay type: functional; conditions: dose 50.0 µg/ml
Candida albicans [14] = experiment: Downregulation of HWP1 mRNA level in fluconazole-resistant Candida albicans DAY185 assessed as fold decrease at 50 ug/ml incubated for 6 hrs by qRT-PCR analysis relative to control; assay type: functional; conditions: dose 50.0 µg/ml
Candida albicans [15] = experiment: Additive antibiofilm activity against fluconazole-resistant Candida albicans DAY185 assessed as inhibition of biofilm formation at 10 ug/ml measured after 24 hrs in presence of BTZ by crystal violet staining based analysis relative to control; assay type: functional, organism-based; conditions: dose 10.0 µg/ml
Candida albicans [16] = experiment: Additive antibiofilm activity against fluconazole-resistant Candida albicans DAY185 assessed as inhibition of biofilm formation at 10 ug/ml measured after 24 hrs in presence of AMB by crystal violet staining based analysis relative to control; assay type: functional, organism-based; conditions: dose 10.0 µg/ml
Candida albicans [17] = experiment: Inhibition of yeast to hypha transition in fluconazole-resistant Candida albicans DAY185 assessed as decrease in hyphal adhesion at 5 to 20 ug/ml measured after 24 hrs by SEM analysis; assay type: functional, organism-based; conditions: dose 5-20 µg/ml
Candida albicans [18] = experiment: Antibiofilm activity against fluconazole-resistant Candida albicans DAY185 assessed as reduction in biofilm thickness on bio-compatible PLGA surface coated with compound at 10 to 20 ug/ml incubated for 24 hrs by CLSM analysis; assay type: functional, organism-based; conditions: dose 10-20 µg/ml
Candida albicans [19] = experiment: Antibiofilm activity against fluconazole-resistant Candida albicans DAY185 assessed as reduction in overall biofilm mass on bio-compatible PLGA surface coated with compound at 10 to 20 ug/ml incubated for 24 hrs by CLSM analysis; assay type: functional, organism-based; conditions: dose 10-20 µg/ml
Candida albicans [20] = experiment: Antibiofilm activity against Candida albicans ATCC 10231 assessed as inhibition of biofilm formation by crystal violet staining based analysis; assay type: functional, organism-based
Candida albicans [21] = experiment: Antibiofilm activity against Candida albicans KCCM 12552 assessed as inhibition of biofilm formation by crystal violet staining based analysis; assay type: functional, organism-based
Candida albicans [22] = experiment: Antibiofilm activity against fluconazole-resistant Candida albicans DAY185 assessed as reduction in mean biofilm thickness on bio-compatible PLGA surface coated with compound incubated for 24 hrs by COMSTAT analysis; assay type: functional, organism-based
Candida albicans [23] = experiment: Inhibition of yeast to hypha transition in fluconazole-resistant Candida albicans DAY185 assessed as decrease in hyphal growth at 5 to 20 ug/ml measured after 24 hrs by SEM analysis; assay type: functional, organism-based; conditions: dose 5-20 µg/ml
Brassica rapa = experiment: Toxicity in Brassica rapa assessed as seed germination rate at 10 to 100 ug/ml treated for 4 days relative to control; assay type: organism-based; conditions: in vivo, 96 h, at 10 to 100 µg/mL, dose 10-100 µg/ml, time 4 day
Candida albicans [24] = experiment: Antibiofilm activity against fluconazole-resistant Candida albicans DAY185 assessed as inhibition of biofilm formation on bio-compatible PLGA surface coated with compound at 10 to 20 ug/ml incubated for 24 hrs by CLSM analysis; assay type: functional, organism-based; conditions: dose 10-20 µg/ml
Candida albicans [25] = experiment: Downregulation of ALS3 mRNA level in fluconazole-resistant Candida albicans DAY185 assessed as fold decrease at 50 ug/ml incubated for 6 hrs by qRT-PCR analysis relative to control; assay type: functional; conditions: dose 50.0 µg/ml
Candida albicans [26] = experiment: Antibiofilm activity against fluconazole-resistant Candida albicans DAY185 assessed as inhibition of biofilm formation at 10 to 20 ug/ml measured after 24 hrs by 2D/3D imaging analysis relative to control; assay type: functional; conditions: dose 10-20 µg/ml
[27] = Toxicity in Caenorhabditis elegans assessed as nematode survival at 100 ug/ml treated for 7 days; conditions: 168 h, dose 100 µg/ml, time 7 day
Candida albicans [28] = experiment: Antibiofilm activity against fluconazole-resistant Candida albicans DAY185 assessed as inhibition of biofilm formation at 1 ug/ml measured after 24 hrs by crystal violet staining based analysis relative to control; assay type: functional
Candida albicans [29] = experiment: Antibiofilm activity against fluconazole-resistant Candida albicans DAY185 assessed as inhibition of biofilm formation at 5 ug/ml measured after 24 hrs by crystal violet staining based analysis relative to control; assay type: functional, organism-based; conditions: dose 5.0 µg/ml

## Clc1ncnc2[nH]cc(I)c12
Candida albicans [1]
  inhibition: Active
Candida albicans [2]
  inhibition at 20 µg/mL: > 85%
Candida albicans [3]
  inhibition: Active
[Candida] auris [4]
  inhibition: Dose-dependent-effect
Candida albicans [5]
  Activity: Active
Candida albicans [6]
  inhibition: Active
Candida albicans [7]
  fold change (FC): 13
[Candida] auris [8]
  inhibition: Dose-dependent-effect
Candida albicans [9]
  inhibition at 50 µg/mL: > 95%
Candida albicans [10]
  fold change (FC): 267
Candida albicans [11]
  Activity: Dose-dependent-effect; Nearly Undetectable Levels Were Observed At 20 Ug/Ml
Candida albicans [12]
  fold change (FC): 15
Candida albicans [13]
  fold change (FC): 14
Candida albicans [14]
  fold change (FC): 55
Candida albicans [15]
  inhibition: Active
Candida albicans [16]
  inhibition: Active
Candida albicans [17]
  inhibition: Active
Candida albicans [18]
  Activity: Active; More Pronounced Effects Were Observed At Higher Concentration
Candida albicans [19]
  Activity: Active; More Pronounced Effects Were Observed At Higher Concentration
Candida albicans [20]
  inhibition: Dose-dependent-effect
Candida albicans [21]
  inhibition: Dose-dependent-effect
Candida albicans [22]
  Activity: Dose-dependent-effect; Nearly Undetectable Levels Were Observed At 20 Ug/Ml
Candida albicans [23]
  inhibition: Active
Brassica rapa
  Activity: > 90%
Candida albicans [24]
  inhibition: Active
Candida albicans [25]
  fold change (FC): 145
Candida albicans [26]
  inhibition: Active; Significant Effect Was Observed At 20 Ug/Ml
[27]
  Activity: Toxic

## Clc1nc(Cl)c2c(Br)c[nH]c2n1
Candida albicans [2]
  inhibition at 20 µg/mL: > 85%
Candida albicans [9]
  inhibition at 50 µg/mL: > 95%

## Clc1ccc(CCC(Cn2ccnc2)Sc2c(Cl)cccc2Cl)cc1 (centres undefined) [BUTOCONAZOLE]
Candida albicans [28]
  inhibition at 1 µg/mL: 56%
Candida albicans [29]
  inhibition: Active

## Clc1ncnc2[nH]cc(Br)c12
Candida albicans [9]
  inhibition at 50 µg/mL: > 85%

## CC(=O)N1CCN(c2ccc(OCC3COC(Cn4ccnc4)(c4ccc(Cl)cc4Cl)O3)cc2)CC1 (centres undefined) [KETOCONAZOLE]
Candida albicans [28]
  inhibition at 1 µg/mL: < 12%

Source: ChEMBL document CHEMBL6182857, “Targeting biofilm formation in Candida albicans with halogenated pyrrolopyrimidine derivatives” (Eur J Med Chem, 2025)
